In one assay the target is T1, BRAF (Homo sapiens, UniProt P15056).
T1 construct: purchased Invitrogen SelectScreen
The experiment in a line: Invitrogen SelectScreen kinase profiling. Format: biochemical. The note with it: 100 nM. The procedure: (§1) The FLT3 and VEGFR1/2 Kinase-Glo kinase assays were performed as reported by our earlier study. The VEGFR3 activity analysis was conducted using the same protocol described in the VEGFR1/2 assay. The kinase inhibition profiling and inhibitory activity of FLT3-D835Y, CSF1R, and TRKA were determined by Invitrogen SelectScreen® kinase profiling service (Carlsbad, California, USA).
(§2) BPR1J-340, a urea-substituted 3-phenyl-1H-5-pyrazolylamine-based compound, was designed through chemical modification of sulfonamide series of derivatives (BPR1J-097 series) by a structure-activity relationship (SAR) study (Fig. 1), [32]. For kinase inhibition specificity screening, BPR1J-340 was tested against 59 protein kinases covering the major oncogenic kinases of human protein kinome. […] In addition, BPR1J-340 inhibited TRKA, which is associated with the growth and metastasis of breast cancers, with an IC50 value of 8 nM. Given the high similarity of the ATP binding pockets of FLT3 and the Aurora kinases, the inhibitory activity toward Aurora A and Aurora B were measured. […] Taken together, BPRJ-340 is a selective kinase inhibitor with in vitro activity against FLT3, VEGFR2, VEGFR3 and TRKA receptor tyrosine kinases.

A further assay concerns the target T2, CDK2/cyclin A (Homo sapiens, UniProt P24941).
T2 construct: purchased Invitrogen SelectScreen
The experiment in a line: Invitrogen SelectScreen kinase profiling. Format: biochemical. The note with it: 100 nM. Here is the method:
as §1, §2

For the next assay, the target named is T3, MET (cMet) (Homo sapiens, UniProt P08581).
T3 construct: purchased Invitrogen SelectScreen
T3 sequence (P08581 25-1390): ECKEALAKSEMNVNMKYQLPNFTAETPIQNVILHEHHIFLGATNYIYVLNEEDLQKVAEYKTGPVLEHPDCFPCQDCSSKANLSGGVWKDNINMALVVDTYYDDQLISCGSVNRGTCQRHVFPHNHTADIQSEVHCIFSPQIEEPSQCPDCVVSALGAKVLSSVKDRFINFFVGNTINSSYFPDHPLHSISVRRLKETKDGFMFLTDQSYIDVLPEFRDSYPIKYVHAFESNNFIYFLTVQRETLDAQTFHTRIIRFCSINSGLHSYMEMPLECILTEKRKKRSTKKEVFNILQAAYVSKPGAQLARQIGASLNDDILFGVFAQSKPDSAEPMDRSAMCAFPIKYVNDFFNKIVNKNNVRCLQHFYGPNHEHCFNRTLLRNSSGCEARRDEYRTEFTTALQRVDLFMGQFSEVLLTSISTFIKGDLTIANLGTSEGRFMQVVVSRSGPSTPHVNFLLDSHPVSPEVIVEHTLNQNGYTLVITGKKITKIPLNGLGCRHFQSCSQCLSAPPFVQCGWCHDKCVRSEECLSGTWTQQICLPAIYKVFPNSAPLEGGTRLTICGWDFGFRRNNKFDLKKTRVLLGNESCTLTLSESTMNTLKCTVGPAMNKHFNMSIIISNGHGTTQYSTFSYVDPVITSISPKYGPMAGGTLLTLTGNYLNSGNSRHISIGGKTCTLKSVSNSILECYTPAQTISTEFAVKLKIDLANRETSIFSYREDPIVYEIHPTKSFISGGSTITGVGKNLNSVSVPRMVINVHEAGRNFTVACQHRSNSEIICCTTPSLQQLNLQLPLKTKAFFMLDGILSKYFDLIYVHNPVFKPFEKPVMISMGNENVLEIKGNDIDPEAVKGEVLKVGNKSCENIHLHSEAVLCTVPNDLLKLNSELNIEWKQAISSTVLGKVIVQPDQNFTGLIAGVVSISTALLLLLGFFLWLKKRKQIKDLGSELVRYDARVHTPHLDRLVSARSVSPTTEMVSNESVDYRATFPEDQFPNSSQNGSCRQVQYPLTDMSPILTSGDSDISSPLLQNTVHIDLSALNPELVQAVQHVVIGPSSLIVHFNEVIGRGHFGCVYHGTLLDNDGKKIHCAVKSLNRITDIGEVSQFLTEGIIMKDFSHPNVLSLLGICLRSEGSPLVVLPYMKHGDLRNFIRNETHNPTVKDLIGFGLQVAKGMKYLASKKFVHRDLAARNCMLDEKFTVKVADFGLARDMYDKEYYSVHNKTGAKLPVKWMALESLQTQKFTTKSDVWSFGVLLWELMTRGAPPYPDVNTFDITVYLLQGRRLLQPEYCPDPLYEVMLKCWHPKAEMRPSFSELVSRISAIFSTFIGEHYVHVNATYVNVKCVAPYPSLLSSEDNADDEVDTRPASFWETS
The experiment in a line: Invitrogen SelectScreen kinase profiling. It counts as biochemical. To be noted: 100 nM. The procedure: as §1, §2

In a further assay the target is T4, PLK1 (Homo sapiens, UniProt P53350).
T4 construct: purchased Invitrogen SelectScreen
T4 sequence (P53350 whole entry): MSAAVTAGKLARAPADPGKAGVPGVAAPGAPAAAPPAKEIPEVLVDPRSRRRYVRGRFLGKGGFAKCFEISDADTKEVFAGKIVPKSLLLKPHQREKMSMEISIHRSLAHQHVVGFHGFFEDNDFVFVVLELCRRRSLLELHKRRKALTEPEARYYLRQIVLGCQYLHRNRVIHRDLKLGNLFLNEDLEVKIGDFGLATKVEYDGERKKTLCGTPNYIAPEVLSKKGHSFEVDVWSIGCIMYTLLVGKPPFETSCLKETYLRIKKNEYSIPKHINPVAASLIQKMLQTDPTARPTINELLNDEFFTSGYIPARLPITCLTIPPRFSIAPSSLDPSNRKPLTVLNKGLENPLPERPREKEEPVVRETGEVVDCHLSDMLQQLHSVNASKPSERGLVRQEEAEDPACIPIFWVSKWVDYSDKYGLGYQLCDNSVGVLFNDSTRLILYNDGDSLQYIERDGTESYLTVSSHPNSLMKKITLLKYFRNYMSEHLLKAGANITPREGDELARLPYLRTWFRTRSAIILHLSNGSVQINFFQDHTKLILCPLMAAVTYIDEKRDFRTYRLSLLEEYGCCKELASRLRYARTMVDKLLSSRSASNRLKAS
The experiment in a line: Invitrogen SelectScreen kinase profiling. Format: biochemical. To be noted: 100 nM. Here is the method: as §1, §2

For assay [1], the target named is T5, FLT3 (wild-type, residues Y567-S993) (Homo sapiens, UniProt P36888).
T5 construct: FLT3 (residues Y567-S993); made in house
The experiment in a line: FLT3 Kinase-Glo kinase assay. Format: biochemical. For orientation: Kinase-Glo reads ATP consumption through a luciferase reaction.
Experimental: All inhibitors were dissolved in dimethylsulfoxide (DMSO) at a stock concentration of 10 mM. […] The preparation of recombinant proteins, FLT3 (residues Y567-S993), VEGFR1 (residues R781-I1338) and VEGFR2 (residues V789-V1356), for biochemical kinase assay was described previously [29].
The FLT3 and VEGFR1/2 Kinase-Glo kinase assays were performed as reported by our earlier study [30].

A further assay addresses Aurora A kinase (Homo sapiens, UniProt O14965). The assay can be described thus: Aurora A kinase inhibition. Format: biochemical. Here is the method: as §2
In the next assay the target is T6, FLT3 D835Y (Homo sapiens, UniProt P36888, D835Y).
T6 sequence (P36888 27-993 D835Y): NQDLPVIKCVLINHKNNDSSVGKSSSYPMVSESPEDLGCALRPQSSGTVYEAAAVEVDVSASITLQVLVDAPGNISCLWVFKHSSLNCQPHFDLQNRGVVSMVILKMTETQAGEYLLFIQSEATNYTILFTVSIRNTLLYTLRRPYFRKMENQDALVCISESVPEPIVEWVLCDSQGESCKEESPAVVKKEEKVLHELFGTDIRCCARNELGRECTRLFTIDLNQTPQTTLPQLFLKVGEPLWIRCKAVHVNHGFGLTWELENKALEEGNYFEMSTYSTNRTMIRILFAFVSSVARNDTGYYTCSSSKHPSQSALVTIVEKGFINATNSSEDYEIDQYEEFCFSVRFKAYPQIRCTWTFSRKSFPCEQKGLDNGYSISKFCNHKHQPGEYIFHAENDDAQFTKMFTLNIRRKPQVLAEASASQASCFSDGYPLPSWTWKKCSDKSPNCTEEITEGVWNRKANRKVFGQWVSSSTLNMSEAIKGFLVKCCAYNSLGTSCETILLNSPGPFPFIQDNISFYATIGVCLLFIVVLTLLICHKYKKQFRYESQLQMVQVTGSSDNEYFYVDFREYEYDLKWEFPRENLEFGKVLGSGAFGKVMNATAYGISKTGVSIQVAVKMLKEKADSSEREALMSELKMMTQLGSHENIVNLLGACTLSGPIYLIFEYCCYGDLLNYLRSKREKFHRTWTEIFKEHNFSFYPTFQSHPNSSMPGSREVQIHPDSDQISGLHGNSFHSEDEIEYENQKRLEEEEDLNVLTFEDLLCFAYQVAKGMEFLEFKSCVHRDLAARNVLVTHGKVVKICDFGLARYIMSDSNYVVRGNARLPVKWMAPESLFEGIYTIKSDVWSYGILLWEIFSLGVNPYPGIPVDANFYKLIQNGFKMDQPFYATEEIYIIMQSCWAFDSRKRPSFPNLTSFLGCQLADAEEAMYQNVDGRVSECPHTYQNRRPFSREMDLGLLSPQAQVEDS
The assay can be described thus: FLT3 phosphorylation in transfected HEK293T cells, Western blot. It counts as cell-based. Details: expressed in transfected cells; host or cells: HEK293T. To be noted: HEK293T cells expressing FLT3-D835Y, 1 hr, FLT3 ligand 50 ng/mL 5 min. The procedure: Cells were lysed in lysis buffer (50 mM Tris, pH 8.0, 150 mM NaCl, 1% Triton X-100, 0.5% sodium deoxycholate, 0.1% SDS, 1 mM sodium orthovanadate, 1 mM PMSF, and 1 mM DTT). Protein lysates were resolved by SDS-PAGE and transferred onto a polyvinylidene difluoride (PVDF) membrane (Millipore, Bedford, MA, USA). The membranes were immunoblotted with appropriate antibodies and detected using the SuperSignal reagent (Pierce, Rockford, IL, USA) followed by exposure to X-ray film.
To address whether BPR1J-340 was able to inhibit the FLT3 signaling pathway in FLT3-driven cells, MV4;11 cells were treated with different concentrations of BPR1J-340 for 1 hour, and the phosphorylation status of FLT3 and STAT5 (Signal Transducer and Activator of Transcription 5), a critical down-stream modulator that plays a major role in FLT3-ITD signal transduction for cell expansion and survival, was examined by Western blot analysis. […] To investigate the difference in sensitivity between FLT3-WT and the activating mutants FLT3-ITD and FLT3-D835Y to BPR1J-340, HEK293T cells engineered to express FLT3-WT or mutants FLT3 (FLT3-ITD, FLT3-D835Y) were analyzed. […]
Figure 2 BPR1J-340 inhibits FLT3-dependent signaling. […] The phosphorylation status of FLT3 and STAT5 were evaluated by Western blot analysis. […] The FLT3 phosphorylation status in the transfected cells was evaluated by Western blot analysis.

Values joined by “and” are separate entries in the source; they are usually repeats but may differ in a detail not shown here. Identical values can stand only once.

Sequence of Aurora A kinase (O14965 whole entry): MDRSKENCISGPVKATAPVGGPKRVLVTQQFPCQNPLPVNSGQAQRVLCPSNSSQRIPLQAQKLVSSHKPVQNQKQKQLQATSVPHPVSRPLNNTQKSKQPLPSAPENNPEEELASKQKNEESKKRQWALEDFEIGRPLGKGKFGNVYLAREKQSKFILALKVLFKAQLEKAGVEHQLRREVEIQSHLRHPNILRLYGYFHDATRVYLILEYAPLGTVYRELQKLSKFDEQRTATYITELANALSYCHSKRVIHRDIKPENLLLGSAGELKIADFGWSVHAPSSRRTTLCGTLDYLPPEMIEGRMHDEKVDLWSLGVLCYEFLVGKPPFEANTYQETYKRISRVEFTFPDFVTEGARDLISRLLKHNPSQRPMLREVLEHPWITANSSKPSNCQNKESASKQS
T1 sequence (P15056 whole entry): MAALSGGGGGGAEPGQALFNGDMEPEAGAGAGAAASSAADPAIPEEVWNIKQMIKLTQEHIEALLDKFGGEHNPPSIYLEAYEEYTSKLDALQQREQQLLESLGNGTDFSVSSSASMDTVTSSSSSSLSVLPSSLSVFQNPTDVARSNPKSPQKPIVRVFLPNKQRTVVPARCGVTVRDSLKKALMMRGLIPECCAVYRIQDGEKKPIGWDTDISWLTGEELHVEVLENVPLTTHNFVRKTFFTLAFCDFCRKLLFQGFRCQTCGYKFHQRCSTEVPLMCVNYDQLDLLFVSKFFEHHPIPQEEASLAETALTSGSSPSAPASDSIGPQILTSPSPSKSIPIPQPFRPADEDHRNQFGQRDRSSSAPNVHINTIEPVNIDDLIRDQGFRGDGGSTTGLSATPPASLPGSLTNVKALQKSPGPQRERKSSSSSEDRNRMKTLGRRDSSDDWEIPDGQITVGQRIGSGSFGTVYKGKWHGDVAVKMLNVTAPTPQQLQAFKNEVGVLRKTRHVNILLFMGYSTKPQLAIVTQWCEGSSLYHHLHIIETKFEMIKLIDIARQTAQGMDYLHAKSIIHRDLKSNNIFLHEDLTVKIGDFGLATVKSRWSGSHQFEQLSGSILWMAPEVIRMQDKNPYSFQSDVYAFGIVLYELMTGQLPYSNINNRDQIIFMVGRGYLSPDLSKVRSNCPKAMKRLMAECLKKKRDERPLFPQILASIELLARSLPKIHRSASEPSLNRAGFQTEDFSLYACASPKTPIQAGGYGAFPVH

What is called inhibition is the share of the control response that was lost under treatment. A lower inhibition goes with a weak effect. As usually defined, the IC50 is the concentration needed to halve the response being measured. A low value points to inhibition by little substance. Regarding `CCc1cc(NC(=O)NCc2ccc(-c3cc(NC(=O)c4ccc(CN5CCN(C)CC5)cc4)[nH]n3)cc2)no1` [BPR1J-340, N1-(3-4-[([(5-ethyl-3-isoxazolyl)amino]carbonylamino)methyl]phenyl-1H-5-pyrazolyl)-4-[(4-methylpiperazino)methyl]benzamide], the inhibition at 0.1 µM against BRAF amounted to 5%; on CDK2/cyclin A, 5%; on MET (cMet) it was 17%; against PLK1, 4%. The IC50 in assay [1] was 29 ± 5 nM; on Aurora A kinase, 1040 nM; at FLT3 D835Y, 10 to 100 nM and ~100 nM.

(Values after paper PMC3885398, “Evaluation of the Antitumor Effects of BPR1J-340, a Potent and Selective FLT3 Inhibitor, Alone or in Combination with an HDAC Inhibitor, Vorinostat, in AML Cancer” (PLoS ONE, 2014).)
